Test results reported in patent publication US10584159B2, “Renilla based biosensors for monitoring biomolecule localization and trafficking in cells” (The Royal Institution for the Advancement of …, priority 2014, dated 2020).
pEC50: −log10 of the molar value. Blank lines part the entries; values can stand above or below the compound they belong to.

How the values were obtained:
Type in all cases: cell-based
hMC4R (R165Q) = molecular target: T1, hMC4R (R165Q) (Homo sapiens, UniProt P32245, R165Q); test: BRET pharmacological chaperone rescue / sequestration assay (rGFP-CAAX), hMC4R (R165Q)-RlucII; settings: 10 μM, 16 h
T1 construct: expressed in transfected cells; host or cells: HEK293
Experimental: (§1) BRET assay for evaluation of PC rescue of cell surface expression and functionality (sequestration assay). In FIGS. 12A to 18E, Hek293 cells were transiently transfected using PEI as described in this section. The DNA transfected per well of a 96-well plate is as follow: in FIGS. 12A and 12B, with 2.4 ng of hMC4R-RlucII encoding construct and an increasing quantity of rGFP-CAAX (Kras) up to 9.6 ng for FIGS. 12A and for 12B, rGFP-PB up to 9.6 ng; in FIGS. 13A to 13C with 0.6, 1.2 or 2.4 ng of hMC4R-RlucII and 4.8 ng of rGFP-CAAX (Kras); in FIG. 13D with 2.4 ng of polycistronic rGFP-CAAX(Kras)/MC4R-RlucII construct; in FIG. 13E with 1.2 ng of hV2R-RlucII and 4.8 ng of rGFP-CAAX (Kras); in FIGS. 14A to 16B with 2.4 ng of hMC4R-RlucII and 7.2 ng of rGFP-CAAX (Kras); Hek293 cells stably expressing rGFP-CAAX(Kras) were transfected with 0.6, 1.2 or 2.4 ng of hMC4R-RlucII; in FIG. 17A or 0.6, 1.2 or 2.4 ng of hV2R_Y128S-RlucII; in FIG. 17B; in FIGS. 18A and 18B with 0.6, 1.2 or 2.4 ng of hERG-RlucII and 4.8 ng of rGFP-CAAX (Kras); and in FIGS. 18C-18E with 0.6 ng of hERG-RlucII and 7.2 ng of rGFP-CAAX (Kras). […] For the BRET assay, cells were washed once with PBS and left in Tyrode's buffer. […] BRET values were determined by calculating the ratio of the light emitted by the acceptor over the light emitted by the RlucII.

hMC4R (P299H) = molecular target: T2, hMC4R (P299H) (Homo sapiens, UniProt P32245, P299H); test: BRET pharmacological chaperone rescue assay (rGFP-CAAX), hMC4R (P299H)-RlucII; settings: 10 μM, 16 h
T2 construct: expressed in transfected cells; host or cells: HEK293
Experimental: as §1

hMC4R wt = molecular target: T3, hMC4R wt (Homo sapiens, UniProt P32245); test: BRET pharmacological chaperone rescue / sequestration assay (rGFP-CAAX), hMC4R wt-RlucII; settings: 10 μM, 16 h
T3 construct: expressed in transfected cells; host or cells: HEK293
Experimental: as §1

[1] = molecular target: T4, Prostaglandin F receptor (FP) (Homo sapiens, UniProt P43088); test: Unimolecular DAG sensor BRET, FP activation; settings: FP-transfected HEK293SL, 1 min stimulation, read-out: EC50, DAG produced at the plasma membrane
T4 construct: expressed in transfected cells; host or cells: HEK293SL
Experimental: (§2) Unimolecular DAG sensor. For FIGS. 22B and C, HEK293SL cells stably expressing hAt1AR (˜50 fmol/mg) were cultured in DMEM supplemented with 10% FBS and 20 μg/ml gentamycin and seeded at a density of 75,000 cells/100 mm dishes and were transiently transfected the next day with 150 ng of construct encoding for the DAG unimolecular sensor, using calcium phosphate method as described previously. 48 h post-transfection, cells were washed and Coel-400a was added to a final concentration of 5 μM and incubated 3 min. […] Data are mean±SD of triplicates of a representative experiment. […] Data are mean±S.E. of six independent experiments. For FIGS. 22D and E, Hek293SL cells were transfected with FuGENE HD, according to Roche's protocol with a ratio of 2:1 fugene:DNA. 10 ng of construct encoding the unimolecular sensor and 400 ng for the receptor (FIGS. 22D, FP and in 2E, GPR14) complemented to 1 ug with ssDNA, were transfected per well of a 6 well plate. 48 h post-transfection, cells were washed, incubated in Tyrode's buffer for 1 h. […] For FIG. 22F, cells were transfected as in FIG. 22D but with just the unimolecular DAG sensor encoding construct. 48 h post-transfection, cells were washed, incubated in Tyrode's buffer for 1 h. […] Cells were then stimulated with 5 μM m-3m3FBS or just vehicle for the indicated time. […] 48 h post-transfection, cells were washed, incubated in Tyrode's buffer for 1 h.

[2] = tested on: PLC (β2, β3, γ1, γ2, δ1 isoforms); test: Unimolecular DAG sensor BRET, direct PLC activation; settings: 5 uM
Experimental: as §2

T2 sequence (P32245 whole entry P299H): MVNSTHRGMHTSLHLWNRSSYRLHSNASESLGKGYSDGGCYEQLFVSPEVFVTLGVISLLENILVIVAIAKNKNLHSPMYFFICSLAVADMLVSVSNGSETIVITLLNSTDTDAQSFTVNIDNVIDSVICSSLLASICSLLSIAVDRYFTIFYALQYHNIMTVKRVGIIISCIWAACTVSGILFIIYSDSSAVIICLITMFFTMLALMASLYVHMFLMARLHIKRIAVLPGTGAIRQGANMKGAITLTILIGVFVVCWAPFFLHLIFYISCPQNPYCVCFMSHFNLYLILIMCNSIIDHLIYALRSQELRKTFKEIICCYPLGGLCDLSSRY
T3 sequence (P32245 whole entry): as the sequence (P32245 whole entry P299H) above, with H299P counted along it
T4 sequence (P43088 whole entry): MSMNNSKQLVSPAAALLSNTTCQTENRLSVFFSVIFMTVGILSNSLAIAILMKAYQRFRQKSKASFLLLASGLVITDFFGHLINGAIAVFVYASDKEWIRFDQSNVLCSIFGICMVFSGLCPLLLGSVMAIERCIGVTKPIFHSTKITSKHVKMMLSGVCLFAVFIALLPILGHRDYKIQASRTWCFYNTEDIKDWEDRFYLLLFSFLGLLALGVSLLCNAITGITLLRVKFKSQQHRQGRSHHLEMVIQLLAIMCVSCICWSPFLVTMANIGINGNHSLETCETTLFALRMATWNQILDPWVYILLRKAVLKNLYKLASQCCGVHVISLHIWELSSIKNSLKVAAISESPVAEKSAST
T1 sequence (P32245 whole entry R165Q): as the sequence (P32245 whole entry P299H) above, with R165Q, H299P counted along it

- PC-mediated rescue of cell surface expression (hMC4R (R165Q)): increase in BRET signal
- PC-mediated rescue of cell surface expression (hMC4R (P299H)): not PC-rescued
- PC-mediated rescue of cell surface expression (hMC4R wt): increase in BRET signal
Compound: CCC(=O)N[C@H](Cc1ccc(Cl)cc1Cl)C(=O)N1CCN(c2ccccc2CNC(C)COC)CC1 (stereo partly drawn) [DCPMP, N-((2R)-3(2,4-dichloroPhenyl)-1-(4-(2-((1-methoxypropan-2-ylamino)methyl)phenyl)piperazin-1-yl)-1-oxopropan-2-yl)propionamide]

- pEC50 [1]: 7.05
Compound: CCCCC[C@H](O)/C=C/[C@H]1[C@H](O)CC(=O)[C@@H]1C/C=C\CCCC(=O)O [PGE2, Prostaglandin E2]

Compound: Cc1cc(C)c(S(=O)(=O)Nc2cccc(C(F)(F)F)c2)c(C)c1 [m-3m3FBS, N-(3-Trifluoromethylphenyl)-2,4,6-trimethylbenzenesulfonamide]
- BRET response of DAG sensor [2]: increase in BRET
